{"source": "patent US12241097B2", "about": "“Compositions and methods for adoptive cell therapy for cancer” (MEMORIAL SLOAN KETTERING CANCER CENTER, priority 2017, dated 2025)", "key": {"PC9 cells": {"test_system": "PC9 cells", "assay": "PC9 viability, CellTitre-Glo, 48 hours", "format": "cell-based, human", "protocol": "FIG. 14 provides exemplary data showing that Human T cells, but not cancer cells, are resistant to Erlotinib. (A) Human Jurkat T cells (red circle) and human non-small cell lung carcinoma cell lines PC9 (black square) and HCC827 (blue triangle) were treated with increasing concentrations of the receptor tyrosine kinase inhibitor Erlotinib. […] Cell viability was measured at 48 hours by CellTitre-Glo® luminescence.\nFIG. 14 provides exemplary data showing that Human T cells, but not cancer cells, are resistant to Erlotinib. Human Jurkat T cells, primary T cells and human non-small cell lung carcinoma cell lines PC9 and HCC827 were treated with increasing concentrations of the receptor tyrosine kinase inhibitor Erlotinib. […] PC9 cells were incubated in the presence of Erlotinib, P-Erlotinib, or P-Erlotinib in the presence of purified CPG2. Cell viability was measured at 48 hours by CellTitre-Glo® luminescence."}, "HCC827": {"test_system": "HCC827", "assay": "HCC827 viability with Erlotinib", "format": "cell-based, human", "experimental": "Human Jurkat T cells, primary T cells and human non-small cell lung carcinoma cell lines PC9 and HCC827 were treated with increasing concentrations of the receptor tyrosine kinase inhibitor Erlotinib. […] Cell viability was measured at 48 hours by CellTitre-Glo® luminescence."}, "Jurkat (T cell)": {"test_system": "Jurkat (T cell)", "assay": "in vitro cytotoxicity, Jurkat", "format": "cell-based, human", "conditions": "T cell lines (Jurkat)"}, "primary T-cells": {"test_system": "primary T-cells", "assay": "in vitro cytotoxicity, primary T cells", "format": "cell-based, human"}, "Jurkat T cells [1]": {"test_system": "Jurkat T cells", "assay": "Jurkat viability with prodrug and supernatant from CPG2-secreting HEK293T cells", "format": "cell-based, human", "conditions": "for cell viability with CPG2 supernatant: 48 hours, control media did not", "protocol": "(§1) The in vitro cytotoxicity of AMS (structure 1c) and its prodrug variant (structure 1a) was tested against a variety of cell lines using a CellTitre Glo® assay (Promega, Madison, WI). […] Moreover, co-treatment with the prodrug and supernatant from CPG2-transfected HEK293T cells (see Example 3) led to cytotoxicity approaching that of the free drug (50 nM), consistent with CPG2-mediated cleavage of the prodrug to release the active parent drug. […] In contrast, AMS prodrug 1a was not activated by HEK293T cells expressing CPG intracellularly, which likely attributed to poor cell-penetrance of the prodrug due to the free bis-anionic gluatamate moiety.\nJurkat T cells were exposed to increasing concentrations of AMS (circle) or Pro-AMS with media alone (triangle) or supernatant from CPG2-secreting HEK293T cells (square). Cell viability was measured at 48 hours by CellTitre-Glo® luminescence assay.\nJurkat T cells were exposed to increasing concentrations of ZD2767P with media alone (triangle) or supernatant from CPG2-secreting HEK293T cells (square). Cell viability was measured at 48 hours by CellTitre-Glo® luminescence assay."}, "SET2 cells [2]": {"test_system": "SET2 cells", "assay": "SET2 viability with prodrug and supernatant from CPG2-secreting HEK293t cells", "format": "cell-based", "conditions": "comparable to AMS at around 100 nM", "protocol": "SET2 cells were exposed to increasing concentrations of AMS (square) or glut-AMS with media alone (− control, triangle) or supernatant from CPG2-secreting HEK293t cells (circle). Cell viability was measured by CellTitre-Glo® luminescence assay.\n(§2) The HA epitope tag permitted staining of surface-level CPG2 in cells expressing either the secreted or transmembrane forms of the enzyme (FIG. 22D). […] Cell viability was measured at 48 hours by CellTitre-Glo® luminescence."}, "[3]": {"test_system": "HEK293T cells expressing CPG2", "assay": "viability of HEK293T cells expressing CPG2 variants exposed to prodrug", "format": "cell-based, human", "protocol": "as §1\nExpression of CPG2 without a signal peptide (CPG2nosigp) was employed as a control. HEK293t cells stably transfected with CPG2 variants were exposed to P-AMS ([…]) for 48 hours and analyzed by bright field microscopy (FIG. 9A). Cells were exposed to varying concentrations of P-AMS and cell viability was analyzed at 48 hr post treatment (FIG. 9B).\nas §2"}, "Jurkat T cells [4]": {"test_system": "Jurkat T cells", "assay": "Jurkat viability with P-AMS and purified recombinant CPG2", "format": "cell-based, human", "conditions": "Jurkat viability at 48 hours", "protocol": "FIG. 4 provides exemplary data showing activation of P-AMS (see FIG. 2) by recombinant CPG2 expressed and purified from E. coli. (A) Human Jurkat T cells were incubated with or without P-AMS in the presence of increasing concentration of purified CPG2. Cell viability was measured at 48 hours by CellTitre-Glo luminescence. (B) Recombinant CPG2 was exposed to various concentrations of glutamated AMS prodrug. Following incubation at 37° C. (0.5, 1, 2, and 4 hr.), the reaction was combined with Amplex® Red (converts free glutamate to a fluorescent species) and fluorescent emission was analyzed using a fluorescence multiwell plate scanner.\nThe CPG2-pET151 vector was transformed into BL21 star E. coli cells and induced with IPTG. Bacteria were homogenized in a French Press and purified by affinity chromatography over Ni++ beads using standard protocols. Imidazole was exchanged via PBS dialysis and protein was purified via desalting spin columns. The expressed and purified CPG2 was assayed to confirm that the active enzyme was a potent converter of glutamated prodrugs. […] Pro-AMS was activated by recombinant CPG2 in vitro. Human Jurkat T cells were incubated with or without P-AMS in the presence of increasing concentration of purified CPG2. Cell viability of the Jurkat cells was measured at 48 hours by CellTitre-Glo® luminescence. […]"}, "HEK293T": {"test_system": "HEK293T", "assay": "in vitro cytotoxicity, HEK293T", "format": "cell-based, human", "conditions": "HEK293-t; unit inferred; read-out: IC50 (cell selectivity data), ceph-AMS"}, "Skov-3": {"test_system": "Skov-3", "assay": "cell viability, Skov-3", "format": "cell-based, human"}, "[5]": {"test_system": "myeloid leukemia cell line SET2", "assay": "cytotoxicity, SET2 (CellTitre Glo)", "format": "cell-based", "conditions": "unit inferred, read-out: IC50 (cell selectivity data), ceph-AMS"}, "SET2 cells [6]": {"test_system": "SET2 cells", "assay": "SET2 viability with ceph-AMS and Beta-lactamase supernatant", "format": "cell-based", "conditions": "comparable to AMS at around 100 nM"}, "[7]": {"test_system": "lung adenocarcinoma cells (HCC827)", "assay": "coculture of 293t^CPGTM cells with HCC827 plus erlotinib prodrug", "format": "cell-based", "conditions": "120 hr, flow cytometry", "protocol": "FIG. 15 provides exemplary data showing the pro-drug activity of 293T cells expressing transmembrane CPG2. GFP+293t^CPGTM cells were co-cultured with lung adenocarcinoma cells (HCC827) at various ratios (293t^CPGTM:HCC827) and the erlotinib prodrug (p-erlotinib) was added. (A) Cells were analyzed at 120 hour by flow cytometry and % GFP was calculated. (B) Ratio of 293t^CPGTM cells to HCC827 cells was calculated for each cell ratio.\nThe retroviral constructs encoding the anti-CD19 CAR and transmembrane CPG2 enzyme described above were transduced into 293T cells to test the conversion activity of transmembrane CPG2 for an Erlotinib prodrug. GFP+293t^CPGTM cells were co-cultured with lung adenocarcinoma cells (HCC827) at various ratios (293t^CPGTM:HCC827) and the erlotinib prodrug (p-erlotinib) was added. Cells were analyzed at 120 hr. by flow cytometry (FIG. 15A) and the percentage of GFP cells and the ratio of 293t^CPGTM cells to HCC827 cells was calculated for each cell ratio (FIG. 15B)."}}}
{"compound": "C#Cc1cccc(Nc2ncnc3cc(OCCOC)c(OCCOC)cc23)c1", "note": "[Erlotinib, reference compound]", "values": [{"measurement": "cell death with increasing concentrations", "setting": "PC9 cells; PC9", "result": "significant cell death"}, {"measurement": "cell death with increasing concentrations", "setting": "HCC827", "result": "significant cell death"}, {"measurement": "response to increasing concentrations", "setting": "Jurkat (T cell)", "result": "resistance"}, {"measurement": "response to increasing concentrations", "setting": "primary T-cells; primary T cells", "result": "resistance"}]}
{"compound": "O=C(O)CC[C@H](NC(=O)Oc1ccc(N(CCI)CCI)cc1)C(=O)O", "note": "[ZD2767P, reference compound]", "values": [{"measurement": "cell viability with CPG2 supernatant", "setting": "Jurkat T cells [1]", "result": "significant decrease in cell viability"}]}
{"compound": "NS(=O)(=O)OC[C@H]1O[C@@H](n2cnc3c(NC(=O)N[C@@H](CCC(=O)O)C(=O)O)ncnc32)[C@H](O)[C@@H]1O", "note": "[P-AMS, ((9-((2R,3R,4S,5R)-3,4-dihydroxy-5-((sulfamoyloxy)methyl)tetrahydrofuran-2-yl)-9H-purin-6-yl)carbamoyl)-L-glutamic Acid]", "values": [{"measurement": "cell viability with CPG2 supernatant", "setting": "SET2 cells [2]", "result": "significant decrease in cell viability"}, {"measurement": "cell death of HEK293T cells expressing CPG2", "setting": "[3]; cell-secreted and transmembrane CPG2, 48 hours, control construct did not", "result": "significant cell death"}, {"measurement": "activation by HEK293T cells expressing CPG intracellularly", "setting": "[3]; intracellular CPG", "result": "not activated"}, {"measurement": "activation by recombinant CPG2", "setting": "Jurkat T cells [4]", "result": "activated"}, {"measurement": "cell viability with CPG2 supernatant", "setting": "Jurkat T cells [1]", "result": "significant decrease in cell viability"}, {"measurement": "IC50", "setting": "Jurkat T cells [1]; Homo sapiens, with CPG2 supernatant, read-out: IC50, co-treatment with supernatant from CPG2-transfected HEK293T cells", "result": 50, "unit": "nM"}]}
{"compound": "Nc1ncnc2c1ncn2[C@@H]1O[C@H](COS(=O)(=O)NCC2=C(C(=O)O)N3C(=O)[C@@H](NC(=O)Cc4cccs4)[C@H]3SC2)[C@@H](O)[C@H]1O", "note": "[ceph-AMS]", "values": [{"measurement": "IC50", "setting": "HEK293T", "result": 2000, "unit": "nM"}, {"measurement": "Selective Index", "setting": "Skov-3", "result": 3.6}, {"measurement": "IC50", "setting": "Skov-3; unit inferred, read-out: IC50 (cell selectivity data), ceph-AMS", "result": "> 1250", "unit": "nM"}, {"measurement": "IC50", "setting": "[5]", "result": "~2200", "unit": "nM"}, {"measurement": "IC50", "setting": "primary T-cells; Human T cell, unit inferred, read-out: IC50 (cell selectivity data), ceph-AMS", "result": "> 1250", "unit": "nM"}, {"measurement": "cell viability with Beta-lactamase supernatant", "setting": "SET2 cells [6]", "result": "significant decrease in cell viability"}]}
{"compound": "C#Cc1cccc(N(Cc2ccc(NC(=O)N[C@@H](CCC(=O)O)C(=O)O)cc2)c2ncnc3cc(OCCOC)c(OCCOC)cc23)c1", "note": "[P-Erlotinib]", "values": [{"measurement": "toxicity of prodrug alone", "setting": "PC9 cells; PC9, 1 μM, 48 hours", "result": "no toxicity"}, {"measurement": "activity of prodrug cleaved by purified CPG2", "setting": "PC9 cells; PC9, with purified CPG2", "result": "comparable activity to the active drug"}, {"measurement": "killing after conversion by transmembrane CPG2", "setting": "[7]", "result": "kills the target cancer cell"}]}
